Patent publication EP4186500A1, “MEK INHIBITORS FOR THE PREVENTION AND TREATMENT OF LONG COVID SYNDROME” (Atriva Therapeutics GmbH, priority 2021, dated 2023)
Like-named read-outs stand apart in the source and are kept apart here.

Columns and labels:
[1] = tested on: SARS-CoV-2 SA variant B.1351; format: cell-based, Severe acute respiratory syndrome coronavirus; conditions: MOI 0.1, 1 and 10, 50, 75 and 100µM, 24 hours
SARS-CoV-2 (FI) = format: cell-based, Severe acute respiratory syndrome coronavirus; conditions: ATR-002 100 µM

Q: O=C(O)c1ccc(F)c(F)c1Nc1ccc(I)cc1Cl [ATR-002, 2-(2-chloro-4-iodophenylamino)-N-3,4-difluoro benzoic acid] was tested. Which virus yield ([1]; Calu-3 cells) did it give?
A: reduction of virus yield

Q: What about the virus yield ([1]; Vero cells) of the same compound?
A: reduction of virus yield

Q: What about the “production of progeny viral particles” value (SARS-CoV-2 (FI); A549-ACE2/TMPRSS2 cells, MOI of 0.001) of the same compound?
A: reduced the production of progeny viral particles

Q: And the “production of progeny viral particles” value (SARS-CoV-2 (FI); A549-ACE2/TMPRSS2 cells, MOI: 0.01)?
A: did not affect the production of progeny viral particles

Q: And the “production of progeny viral particles” value (SARS-CoV-2 (FI); Calu-3 cells, MOI of 0.001)?
A: reduced the production of progeny viral particles
